According to patent US6335339B1, “Triazine antiviral compounds” (Scriptgen Pharmaceuticals, Inc., priority 1998, dated 2002):

Key:
[1] = system: HIV derived RRE RNA; experiment: heterologous hybridization inhibition assay with RRE RNA; format: binding; settings: radiolabeled RRE RNA, rRNA competitor
[2] = system: 2.2.15 cells; experiment: neutral red dye uptake cytotoxicity; format: cell-based; settings: 9 days treatment, read-out: 50% Cell Death CC50
Protocol: Further, the antiviral effect of any compound must be measured against its toxicity. Cytotoxicity is measured by the neutral red uptake method using the same cells used for antiviral activity.
2b. Compounds were prepared for toxicity treatment as follows: For each compound, a total of 4 concentrations were examined. This required 9 sets of 4 sterile, 1.1 ml minitubes (36 tubes per compound). Into the first tube of each set, sufficient compound was aliquoted to make up 465 μl of the highest test concentration. The other tubes were left empty. The tubes were covered with the rack lids, and stored at −20° C. or at an appropriate temperature. Tubes for the last day of treatment for toxicity testing contain the same amount of compound as used the previous days (not 3xas for the antiviral assays).
3b. The cytotoxicity of test compounds was analyzed in a 3.3-fold dilution series as follows. […] (155 μl×3) of RP2 were added to the first tube (containing the aliquot of compound) and 310 μL (155 μl×2) RP2 to each of the 3 remaining tubes. 150 μl of test compound-containing medium were serially transferred from the first tube to the other 3 tubes.
5. A single plate was used for the toxicity treatments for each test compound (up to 7 compounds per plates since the top row were reserved for untreated cells on every toxicity plate). To initiate the treatments, the culture medium was removed, and 100 μl of each dilution of every compound were added to each of 3 wells using a configuration similar to that shown above for the antiviral treatments. The untreated cells received 100 μl RP2 per well. Treatment was repeated daily for 9 days.
The antiviral effect of any compound was evaluated relative to its toxicity. Cells were seeded and treated following the guidelines above, after which a neutral red dye uptake assay was performed to assess toxicity as described below. Other assays of cytotoxicity (e.g., MTT) can be substituted for the procedure described below. Note that this procedure assesses toxicity under culture and treatment conditions which are identical to those used for the antiviral analyses, thereby permitting a determination as to whether the reduction in virus production due to a specific antiviral effect or due to a cytotoxic effect on the host cell. Since the cultures, by necessity, are at confluence, the cytotoxic effects of the test compounds will probably be reduced relative to the cytotoxic effects that would be expected for actively dividing cells.
1. Cultures were treated with test compounds on the designated toxicity plates as described above.
2. The culture medium was carefully removed 24 hours following the 9th day of treatment. The monolayer was fully removed in the top left three wells (row A, col. 1-3). These wells were used as “blanks” for the plate reader.
3. 100 μl DPBS (containing 0.01% neutral red dye) were added to each well, including the empty wells, and Incubated in the tissue culture incubator for 30 minutes.
4. The dye was removed carefully and gently, using a multichannel pipetman since the monolayers can become fragile after incubation with neutral red dye. 200 μl DPBS were added to all the wells taking care not to displace the monolayers. The DPBS was removed and 100 μl 50% EtOH/1% glacial acetic acid (in H2O) were added to each well. The plates were mixed for 15 minutes on an orbital platform shaker (120-150 RPM) to allow for full extraction of the dye from the cells.
5. Optical absorbance at 510 nm was read in an ELISA type plate reader, using the 3 empty wells to set the background. An average absorbance value was calculated for the 9 untreated cultures on a plate, and the absorbance of dye for the treated cultures on the same plate was expressed as a percentage of that value. This procedure was repeated for each individual plate. […]

SMILES	RRE + rRNA IC50 (μM) [1]	CC50 [2] [µM]	IC50 [1] [µM]
Oc1ccc(Br)cc1C=NNc1nc(Nc2cccc(C(F)(F)F)c2)nc(N2CCOCC2)n1 [Compound 246]	inactive	141	–
FC(F)(F)c1cccc(Nc2nc(Nc3cccc(Cl)c3)nc(N3CCOCC3)n2)c1 [Compound 247]	inactive	136	–
Cc1ccc(Nc2nc(NCc3cc(F)ccc3F)nc(Nc3ccc([N+](=O)[O-])cc3)n2)cc1C [Compound 248]	inactive	135	–
Cc1ccc(Nc2nc(NN=Cc3ccc(Cl)cc3)nc(N3CCOCC3)n2)cc1 [Compound 249]	inactive	134	–
Cc1ccc(Nc2nc(NNC(=O)c3ccccc3O)nc(Oc3ccc([N+](=O)[O-])cc3)n2)cc1C [Compound 250]	inactive	123	–
Cc1ccc(Nc2nc(Nc3cccc(C(F)(F)F)c3)nc(N3CCOCC3)n2)cc1C [Compound 251]	inactive	96	–
COc1ccc(Nc2nc(NCCc3ccccc3)nc(N(C)C)n2)cc1OC [Compound 252]	inactive	61	–
CNc1nc(NN=Cc2ccccc2C(F)(F)F)nc(Nc2cccc(C(F)(F)F)c2)n1 [Compound 253]	–	193	659
